For three molecules, IC50 and GI50 results are on record in US20260365670A1, “EGFR INHIBITORS AND USES THEREOF” (DIZAL (JIANGSU) PHARMACEUTICAL CO., LTD., priority 2022, published 2026).

Like-named read-outs stand apart in the source and are kept apart here.

One assay concerns the target T1, EGFR (C797S L858R) (Homo sapiens, UniProt P00533, C797S/L858R).
T1 construct: purchased signalchem
In words: Inhibition of EGFR (C797S L858R) biochemical enzymatic activity (HTRF). Conditions: 1 mM ATP. The method in brief:
(§1)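 In a buffer with 5 mM MgCl2, 1 mM MnCl2, 1 mM DTT and 0.01% CHAPS, enzyme turnover of 1 μM biotinylated TK substrate at 1 mM ATP is followed by HTRF after 1 h at room temperature. IC50 is obtained by a four-parameter fit.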
In general terms: Time-resolved FRET reads energy transfer from a long-lived donor to a nearby acceptor.

Another assay addresses T2, EGFR wild type (Homo sapiens, UniProt P00533).
T2 construct: purchased Carna Bio
In words: Inhibition of EGFR wild type biochemical enzymatic activity (HTRF). Conditions: 1 mM ATP. The method in brief:
as §1

A further assay concerns the target T3, EGFR Exon19Del/T790M (Homo sapiens, UniProt P00533, DEL746-750/T790M).
T3 construct: purchased Carna Bio
Description: Inhibition of EGFR Exon19Del/T790M biochemical enzymatic activity (HTRF). Conditions: 1 mM ATP. In outline:
as §1

In a further assay the target is T4, EGFR L858R/T790M (Homo sapiens, UniProt P00533, L858R/T790M).
T4 construct: purchased Carna Bio
Description: Inhibition of EGFR L858R/T790M biochemical enzymatic activity (HTRF). Conditions: 1 mM ATP. The method in brief: as §1

For another assay, the target named is T5, EGFR L858R (Homo sapiens, UniProt P00533, L858R).
T5 construct: purchased Carna Bio
In words: Inhibition of EGFR L858R biochemical enzymatic activity (HTRF). Conditions: 1 mM ATP. In outline:
as §1

A further assay concerns A-431. In words: Cell proliferation assay, A-431 cells (GI50, Table 6). It is filed as cell-based. The following applies: Homo sapiens, A-431, A-431 cells. The procedure:
[Worded in the source for another cell line; this cell line is reported under the same test.] Ba/F3 cells expressing EGFR mutations were seeded in 384-well plates at 5000 cells/well in RPMI1640 medium containing […]. PC-9 at 500 cells/well was seeded into 384-well plates in RPMI1640 medium with 10% FBS. After overnight incubation, the assay plates were dosed with compounds at a series of concentrations. Alongside dosing the assay plates, the day 0 plate was processed using CellTiter-Glo® Luminescent Cell Viability Assay (Promega) to measure the number of viable cells (G0). The assay plates were further incubated for 72 hours and the number of viable cells (G3) was measured. The percentage of proliferation was calculated as: […]=100×(G3 value of sample well−G0 value)/(G3 value of DMSO control−G0 value). The concentration of compound producing 50% proliferation inhibition (GI50) was further calculated in best-fit curves using XLFit software. N/A=not available.

The next assay has as its target T6, EGFR (d746-750 C797S) (Homo sapiens, UniProt P00533, C797S/DEL746-750).
T6 construct: purchased signalchem
Description: Inhibition of EGFR (d746-750 C797S) biochemical enzymatic activity (HTRF). The following applies: 1 mM ATP. In outline: as §1

In a further assay the test system is PC-9. In words: Cell proliferation assay, PC-9 cells (CellTiter-Glo, 72 hours). Conditions: Homo sapiens, PC-9, 72 h, PC9 cells, read-out: GI50 PC9. It is filed as cell-based. The method in brief:
(§2)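 Luminescent viable-cell counts were taken on a day 0 plate at dosing and again at endpoint. Proliferation was calculated as (sample − G0)/(DMSO − G0). Seeding was 5000 Ba/F3 or 500 PC-9 cells per well in RPMI1640, followed by overnight attachment and serial compound dilutions. The GI50 was fitted.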
In general terms: ATP-based viability assays read luminescence as a measure of living cells.

In the next assay the target is T7, EGFR[T790M/C797S/L858R] (Homo sapiens, UniProt P00533, C797S/L858R/T790M).
T7 construct: purchased Carna Bio
In words: Inhibition of EGFR[T790M/C797S/L858R] biochemical enzymatic activity (HTRF). Conditions: 1 mM ATP. The method in brief: as §1

The test system of assay [1] is Ba/F3 cells expressing EGFR mutations. In words: Cell proliferation assay, Ba/F3 cells expressing EGFR mutations (CellTiter-Glo, 72 hours). The assay is classed as cell-based. The following applies: Mus musculus, BaF3, 72 h. In outline:
as §2

The next assay concerns the target T8, EGFR Exon19Del (Homo sapiens, UniProt P00533, DEL746-750).
T8 construct: purchased Carna Bio
In words: Inhibition of EGFR Exon19Del biochemical enzymatic activity (HTRF). Conditions: EGFR Exon19Del, 1 mM ATP, 1 h at room temperature, read-out: IC50 @Del19. The method in brief: as §1

Assay [2] deals with T9, EGFR[T790M/C797S/d746-750] (Homo sapiens, UniProt P00533, C797S/DEL746-750/T790M).
T9 construct: purchased Carna Bio
Description: Inhibition of EGFR[T790M/C797S/d746-750] biochemical enzymatic activity (HTRF). In outline: as §1

[3] abbreviates: EGFR (C797S L858R), 1 h at room temperature, read-out: IC50 @L858-C797S.
Where [4] appears, read: EGFR Exon19Del/T790M, 1 h at room temperature, read-out: IC50 @Del19-T790M.
Setting [5] is: EGFR L858R/T790M, 1 h at room temperature, read-out: IC50 @L858R-T790M.
Setting [6] is: 1 h at room temperature, read-out: IC50 @L858R.
Where [7] appears, read: EGFR (d746-750 C797S), 1 h at room temperature, read-out: IC50 @Del19-C797S.
The mark [8] stands for this setting: EGFR[T790M/C797S/L858R], 1 h at room temperature, read-out: IC50 @T790M- C797S - L858R.
The mark [9] stands for this setting: BaF3 cells, EGFR DEL19 - C797S, read-out: GI50 DEL19 - C797S/BaF3.
Setting [10] is: BaF3 cells, EGFR DEL19 - T790-C797S, read-out: GI50 DEL19 - T790-C797S/BaF3.
[11] abbreviates: BaF3 cells, EGFR L858R - C797S, read-out: GI50 L858R - C797S/BaF3.
The mark [12] stands for this setting: BaF3 cells, EGFR L858R - T790-C797S, read-out: GI50 L858R - T790-C797S/BaF3.
The mark [13] stands for this setting: BaF3 cells, EGFR L858R - T790M, read-out: GI50 L858R - T790M/BaF3.
Setting [14] is: BaF3 cells, EGFR L858R, read-out: GI50 L858R/BaF3.
Where [15] appears, read: EGFR DEL19 - T790M, read-out: GI50 DEL19 - T790M.
[16] abbreviates: EGFR[T790M/C797S/d746-750], 1 mM ATP, 1 h at room temperature, read-out: IC50 @T790M - C797S - Del19.

T7 sequence (P00533 25-1210 T790M/C797S/L858R): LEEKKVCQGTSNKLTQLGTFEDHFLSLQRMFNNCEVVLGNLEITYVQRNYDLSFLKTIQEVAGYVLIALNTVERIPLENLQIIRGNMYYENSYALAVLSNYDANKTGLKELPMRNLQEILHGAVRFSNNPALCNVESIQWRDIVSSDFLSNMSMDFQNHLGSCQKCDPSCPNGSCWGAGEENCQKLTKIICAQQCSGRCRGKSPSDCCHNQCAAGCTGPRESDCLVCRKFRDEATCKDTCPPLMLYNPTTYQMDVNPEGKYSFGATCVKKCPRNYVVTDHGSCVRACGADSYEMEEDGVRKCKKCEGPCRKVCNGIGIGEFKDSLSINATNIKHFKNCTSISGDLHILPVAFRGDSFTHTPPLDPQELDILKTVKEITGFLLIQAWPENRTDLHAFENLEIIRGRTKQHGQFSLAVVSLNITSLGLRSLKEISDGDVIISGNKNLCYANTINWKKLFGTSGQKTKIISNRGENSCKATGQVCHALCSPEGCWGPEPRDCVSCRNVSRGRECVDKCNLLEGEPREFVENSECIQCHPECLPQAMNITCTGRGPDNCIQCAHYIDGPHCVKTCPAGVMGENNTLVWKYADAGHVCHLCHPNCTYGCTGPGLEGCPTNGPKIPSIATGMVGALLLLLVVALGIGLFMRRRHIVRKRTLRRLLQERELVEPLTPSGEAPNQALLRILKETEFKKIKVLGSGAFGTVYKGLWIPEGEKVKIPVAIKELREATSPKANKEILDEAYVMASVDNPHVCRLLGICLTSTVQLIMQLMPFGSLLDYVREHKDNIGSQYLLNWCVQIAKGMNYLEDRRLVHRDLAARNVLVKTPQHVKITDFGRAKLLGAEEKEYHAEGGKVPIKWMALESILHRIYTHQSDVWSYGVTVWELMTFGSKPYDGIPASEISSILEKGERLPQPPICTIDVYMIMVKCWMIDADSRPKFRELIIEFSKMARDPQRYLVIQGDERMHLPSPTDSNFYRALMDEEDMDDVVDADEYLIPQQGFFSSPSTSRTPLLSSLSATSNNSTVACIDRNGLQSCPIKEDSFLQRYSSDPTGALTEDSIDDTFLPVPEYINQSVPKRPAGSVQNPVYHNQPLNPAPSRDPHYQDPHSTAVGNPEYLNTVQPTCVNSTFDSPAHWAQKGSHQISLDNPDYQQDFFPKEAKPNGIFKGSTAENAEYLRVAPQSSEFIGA
T5 sequence (P00533 25-1210 L858R): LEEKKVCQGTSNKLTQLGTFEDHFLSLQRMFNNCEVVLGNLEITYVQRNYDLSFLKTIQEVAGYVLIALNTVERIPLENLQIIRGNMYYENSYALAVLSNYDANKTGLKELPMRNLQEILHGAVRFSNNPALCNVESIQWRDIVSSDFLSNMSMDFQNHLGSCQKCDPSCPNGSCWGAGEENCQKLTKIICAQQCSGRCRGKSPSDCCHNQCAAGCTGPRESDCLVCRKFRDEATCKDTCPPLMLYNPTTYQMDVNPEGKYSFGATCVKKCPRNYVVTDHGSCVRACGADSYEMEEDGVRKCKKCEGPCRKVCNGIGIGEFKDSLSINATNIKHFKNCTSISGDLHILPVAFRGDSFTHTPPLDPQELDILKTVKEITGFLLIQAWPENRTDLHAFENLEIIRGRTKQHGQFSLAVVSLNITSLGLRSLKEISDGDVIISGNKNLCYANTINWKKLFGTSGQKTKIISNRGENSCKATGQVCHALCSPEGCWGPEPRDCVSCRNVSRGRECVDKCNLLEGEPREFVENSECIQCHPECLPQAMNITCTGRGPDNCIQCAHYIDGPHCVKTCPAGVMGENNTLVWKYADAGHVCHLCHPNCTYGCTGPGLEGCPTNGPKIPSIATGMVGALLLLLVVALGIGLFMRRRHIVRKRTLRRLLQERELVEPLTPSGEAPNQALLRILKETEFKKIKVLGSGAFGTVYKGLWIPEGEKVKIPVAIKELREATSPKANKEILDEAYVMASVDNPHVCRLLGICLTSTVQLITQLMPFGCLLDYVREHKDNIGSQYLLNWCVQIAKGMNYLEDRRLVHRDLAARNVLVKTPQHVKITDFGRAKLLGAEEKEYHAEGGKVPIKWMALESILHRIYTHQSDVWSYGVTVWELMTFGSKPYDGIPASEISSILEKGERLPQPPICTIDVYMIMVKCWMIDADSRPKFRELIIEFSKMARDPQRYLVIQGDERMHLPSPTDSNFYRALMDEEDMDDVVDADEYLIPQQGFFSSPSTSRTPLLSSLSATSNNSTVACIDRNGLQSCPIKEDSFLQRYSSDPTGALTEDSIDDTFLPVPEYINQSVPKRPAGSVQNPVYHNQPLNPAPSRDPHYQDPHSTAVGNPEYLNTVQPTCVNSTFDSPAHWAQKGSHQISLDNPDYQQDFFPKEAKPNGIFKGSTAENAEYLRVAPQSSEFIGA
T3 sequence (P00533 with tags, fused parts or gaps DEL746-750/T790M limits assumed): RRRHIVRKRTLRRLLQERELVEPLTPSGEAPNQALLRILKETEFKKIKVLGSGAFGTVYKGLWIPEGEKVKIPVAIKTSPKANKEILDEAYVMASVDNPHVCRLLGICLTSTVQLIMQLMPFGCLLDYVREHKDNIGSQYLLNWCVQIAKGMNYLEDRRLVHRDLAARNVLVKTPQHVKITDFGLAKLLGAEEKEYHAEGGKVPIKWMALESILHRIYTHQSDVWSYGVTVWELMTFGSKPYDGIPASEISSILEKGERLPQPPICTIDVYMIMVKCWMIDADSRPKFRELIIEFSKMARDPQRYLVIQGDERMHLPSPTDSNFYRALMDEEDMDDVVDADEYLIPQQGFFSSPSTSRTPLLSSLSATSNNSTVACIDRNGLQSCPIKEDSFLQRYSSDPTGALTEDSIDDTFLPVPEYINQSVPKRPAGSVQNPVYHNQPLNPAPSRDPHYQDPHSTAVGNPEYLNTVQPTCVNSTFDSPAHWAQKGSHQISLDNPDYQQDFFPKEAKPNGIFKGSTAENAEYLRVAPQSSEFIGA
T9 sequence (P00533 with tags, fused parts or gaps DEL746-750/T790M/C797S limits assumed): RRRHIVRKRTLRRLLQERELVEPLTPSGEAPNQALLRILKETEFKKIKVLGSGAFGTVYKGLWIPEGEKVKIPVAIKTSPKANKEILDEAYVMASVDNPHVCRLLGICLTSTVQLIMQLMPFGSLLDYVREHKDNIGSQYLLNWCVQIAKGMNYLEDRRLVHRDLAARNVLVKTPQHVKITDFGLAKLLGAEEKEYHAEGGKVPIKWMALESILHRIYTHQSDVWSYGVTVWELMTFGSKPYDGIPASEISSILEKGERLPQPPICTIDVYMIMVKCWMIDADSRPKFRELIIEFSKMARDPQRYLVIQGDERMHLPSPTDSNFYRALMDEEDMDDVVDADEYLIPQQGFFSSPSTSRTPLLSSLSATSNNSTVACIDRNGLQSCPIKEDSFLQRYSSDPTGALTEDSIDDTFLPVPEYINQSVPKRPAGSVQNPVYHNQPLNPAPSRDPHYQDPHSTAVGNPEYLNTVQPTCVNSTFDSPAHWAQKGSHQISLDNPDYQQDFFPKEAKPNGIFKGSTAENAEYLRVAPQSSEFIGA
T6 sequence (P00533 with tags, fused parts or gaps DEL746-750/C797S limits assumed): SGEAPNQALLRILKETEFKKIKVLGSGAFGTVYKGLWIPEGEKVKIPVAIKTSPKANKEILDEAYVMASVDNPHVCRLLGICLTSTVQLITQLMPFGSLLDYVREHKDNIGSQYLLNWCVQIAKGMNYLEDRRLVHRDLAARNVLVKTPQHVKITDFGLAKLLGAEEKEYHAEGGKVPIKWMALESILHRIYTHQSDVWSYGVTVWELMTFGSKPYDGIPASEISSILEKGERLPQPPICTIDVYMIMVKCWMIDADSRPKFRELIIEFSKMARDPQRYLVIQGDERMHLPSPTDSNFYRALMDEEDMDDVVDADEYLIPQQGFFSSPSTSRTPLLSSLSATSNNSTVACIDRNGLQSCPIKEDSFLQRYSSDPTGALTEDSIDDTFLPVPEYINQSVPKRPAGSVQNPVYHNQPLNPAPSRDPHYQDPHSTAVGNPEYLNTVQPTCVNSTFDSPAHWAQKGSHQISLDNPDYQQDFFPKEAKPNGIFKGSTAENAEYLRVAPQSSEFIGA
T8 sequence (P00533 with tags, fused parts or gaps DEL746-750 limits assumed): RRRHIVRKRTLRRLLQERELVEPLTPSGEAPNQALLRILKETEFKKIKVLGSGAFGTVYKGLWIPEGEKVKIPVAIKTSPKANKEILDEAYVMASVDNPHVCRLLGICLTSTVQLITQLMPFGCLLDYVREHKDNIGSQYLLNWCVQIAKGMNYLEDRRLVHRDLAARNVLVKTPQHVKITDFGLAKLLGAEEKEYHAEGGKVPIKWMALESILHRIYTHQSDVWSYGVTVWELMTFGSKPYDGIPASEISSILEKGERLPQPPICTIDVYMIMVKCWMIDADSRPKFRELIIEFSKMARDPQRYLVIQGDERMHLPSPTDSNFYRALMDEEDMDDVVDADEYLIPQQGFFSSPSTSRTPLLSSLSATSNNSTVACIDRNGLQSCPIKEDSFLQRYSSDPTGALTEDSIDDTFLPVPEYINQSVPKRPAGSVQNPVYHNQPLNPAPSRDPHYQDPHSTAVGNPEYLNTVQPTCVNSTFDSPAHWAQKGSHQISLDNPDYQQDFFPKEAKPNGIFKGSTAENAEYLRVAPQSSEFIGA

A word on the IC50: it is the concentration at which inhibition is half-maximal. In the case of `Cc1cc2cc(n1)-c1cnn(C)c1OCCN1CC3CCC(CC3)(C1)n1c(nc3ccc(N(C)CCCN(C)C)cc31)NC2=O` [Example B33], the IC50 was 131 nM at EGFR (C797S L858R) (setting [3]); > 5000 nM on EGFR wild type (EGFR wild type, 1 h at room temperature, read-out: IC50 @WT); 9.9 nM at EGFR Exon19Del/T790M (setting [4]); 20 nM at EGFR L858R/T790M (setting [5]); 214 nM on EGFR L858R (setting [6]); 22 nM at EGFR (d746-750 C797S) (setting [7]). Moreover, the IC50 on EGFR[T790M/C797S/L858R] (setting [8]) turned out to be 6.2 nM; on EGFR Exon19Del, 28 nM; in assay [2] (setting [16]), 3 nM. For the same molecule, the GI50 in the assay with A-431 is 3740 nM; with PC-9, 75 nM; in assay [1] (setting [9]) it was 10 nM; in assay [1] (setting [10]) it was 3 nM; in assay [1] (setting [11]), 69 nM; in assay [1] (setting [12]), 7 nM. For the same molecule, the GI50 was 13 nM in [1] (setting [13]), 62 nM in assay [1] (setting [14]) and 4 nM in [1] (setting [15]).
Turning to `CN1CCN(c2cc3c(cc2F)nc2n3C34CCC(CC3)CN(CCOc3c(cnn3C)-c3cc(cn(C)c3=O)C(=O)N2)C4)CC1` [Example A115, 6-fluoro-15,21-dimethyl-5-(4-methylpiperazin-1-yl)-23-oxa-2,9,11,15,20,21,26-heptaazaheptacyclo[26.2.2.1^{1,26}.1^{13,17}.0^{2,10}.0^{3,8}.0^{18,22}]tetratriaconta-3,5,7,9,13,17(34),18(22),19-octaene-12,16-dione], the IC50 at EGFR (C797S L858R) (EGFR L858-C797S, 1 h, room temperature, read-out: IC50 (nM) @L858-C797S) is 112 nM; at EGFR wild type (EGFR WT, 1 h, room temperature, read-out: IC50 (nM) @WT), > 5000 nM; at EGFR Exon19Del/T790M (EGFR Del19-T790M, 1 h, room temperature, read-out: IC50 (nM) @Del19-T790M), 12 nM; at EGFR L858R/T790M (EGFR L858R-T790M, 1 h, room temperature, read-out: IC50 (nM) @L858R-T790M) it was 325 nM; on EGFR L858R (1 h, room temperature, read-out: IC50 (nM) @L858R) it was 233 nM; on EGFR (d746-750 C797S) (EGFR Del19-C797S, 1 h, room temperature, read-out: IC50 (nM) @Del19-C797S), 9.2 nM. In addition, the IC50 turned out to be 50 nM at EGFR[T790M/C797S/L858R] (EGFR T790M-C797S-L858R, 1 h, room temperature, read-out: IC50 (nM) @T790M- C797S - L858R) and 6.6 nM in assay [2] (EGFR T790M-C797S-Del19, 1 mM ATP, 1 h, room temperature, read-out: IC50 (nM) @T790M - C797S - Del19). Besides, the GI50 in the assay on A-431 came to 3040 nM; in the assay with PC-9 it was 94 nM; in [1] (setting [9]), 7.6 nM; in assay [1] (setting [10]), 52 nM; in assay [1] (setting [11]), 61 nM; in [1] (setting [12]) it was 68 nM. Further, the values for the GI50 in assay [1] (setting [13]), in assay [1] (setting [14]) and in assay [1] (setting [15]) were 133 nM, 20 nM and 18 nM, respectively.
For `Cc1cc2cc(n1)-c1cnn(C)c1OCCN1CC3CCC(CC3)(C1)n1c(nc3ccc(N4CCC5(CCN(C)CC5)C4)cc31)NC2=O` [Example B31], the IC50 at EGFR (C797S L858R) (setting [3]) is 113 nM; at EGFR Exon19Del/T790M (setting [4]) it was 11 nM; at EGFR L858R/T790M (setting [5]) it was 20 nM; at EGFR L858R (setting [6]), 244 nM; on EGFR (d746-750 C797S) (setting [7]), 15 nM; at EGFR[T790M/C797S/L858R] (setting [8]) it was 8.2 nM. In addition, the IC50 on EGFR Exon19Del came to 19 nM; in assay [2] (setting [16]), 7.3 nM. Moreover, the GI50 in the assay with A-431 amounted to 1680 nM; in the assay on PC-9 it was 103 nM; in [1] (setting [9]), 24 nM; in assay [1] (setting [10]), 10 nM; in [1] (setting [11]), 127 nM; in [1] (setting [12]), 19 nM. Further, the figures for the GI50 in [1] (setting [13]), in assay [1] (setting [14]) and in assay [1] (setting [15]) were 38 nM, 81 nM and 10 nM, respectively.
